The values below come from ChEMBL document CHEMBL1136398, “Non-peptide alphavbeta3 antagonists. Part 6: design and synthesis of alphavbeta3 antagonists containing a pyridone or pyrazinone central scaffold” (Bioorg Med Chem Lett, 2003).

Data set [1] can be described thus: Partition coefficient (logP). The following applies: octanol/water. The data set is classed as physicochemical.
Data set [2] addresses T1, Integrin alpha-V/beta-3 (Homo sapiens, UniProt P05106+P06756). Kind of data set: Inhibitory activity against human alpha V beta3 receptor using SPAV3 assay. The data set is classed as protein-complex assay.
Data set [3] addresses T1, Integrin alpha-V/beta-3. In words: Inhibitory activity against human alphaV-beta3 integrin using SPAV3 assay. The data set is classed as protein-complex assay.
Data set [4] in a line: Protein binding in human plasma. The data set is classed as ADME, cell-free. To be noted: read-out: PB (converted).
A short description of data set [5]: Half-life in vivo in dog by intravenous administration at a dose of 0.2 mg/kg. The data set is classed as ADME, organism-based, Canis lupus familiaris. Also noted: dose 0.2 mg/kg, route intravenous.
The nature of data set [6]: Half-life in vivo in dog by intravenous administration at a dose of 1 mg/kg. More on the design: dose 1 mg/kg, route intravenous. In kind it is ADME, organism-based, Canis lupus familiaris.
Data set [7] deals with Canis familiaris. In words: Plasma clearance in vivo in dog by intravenous administration at a dose of 0.2 mg/kg. The data set is classed as ADME, organism-based, Canis lupus familiaris. More on the design: dose 0.2 mg/kg, route intravenous.
For data set [8], the system named is Canis familiaris. In words: Plasma clearance in vivo in dog by intravenous administration at a dose of 1 mg/kg. Also noted: dose 1 mg/kg, route intravenous. The data set is classed as ADME, organism-based, Canis lupus familiaris.
A short description of data set [9]: Oral bioavailability in dog (dose 0.2 mg/kg i.v.). To be noted: in vivo. In kind it is ADME, organism-based, Canis lupus familiaris.
Data set [10] can be described thus: Oral bioavailability in dog (dose 1 mg/kg i.v.). In kind it is ADME, organism-based, Canis lupus familiaris. To be noted: in vivo.

T1 sequence (P05106 27-788 limits assumed): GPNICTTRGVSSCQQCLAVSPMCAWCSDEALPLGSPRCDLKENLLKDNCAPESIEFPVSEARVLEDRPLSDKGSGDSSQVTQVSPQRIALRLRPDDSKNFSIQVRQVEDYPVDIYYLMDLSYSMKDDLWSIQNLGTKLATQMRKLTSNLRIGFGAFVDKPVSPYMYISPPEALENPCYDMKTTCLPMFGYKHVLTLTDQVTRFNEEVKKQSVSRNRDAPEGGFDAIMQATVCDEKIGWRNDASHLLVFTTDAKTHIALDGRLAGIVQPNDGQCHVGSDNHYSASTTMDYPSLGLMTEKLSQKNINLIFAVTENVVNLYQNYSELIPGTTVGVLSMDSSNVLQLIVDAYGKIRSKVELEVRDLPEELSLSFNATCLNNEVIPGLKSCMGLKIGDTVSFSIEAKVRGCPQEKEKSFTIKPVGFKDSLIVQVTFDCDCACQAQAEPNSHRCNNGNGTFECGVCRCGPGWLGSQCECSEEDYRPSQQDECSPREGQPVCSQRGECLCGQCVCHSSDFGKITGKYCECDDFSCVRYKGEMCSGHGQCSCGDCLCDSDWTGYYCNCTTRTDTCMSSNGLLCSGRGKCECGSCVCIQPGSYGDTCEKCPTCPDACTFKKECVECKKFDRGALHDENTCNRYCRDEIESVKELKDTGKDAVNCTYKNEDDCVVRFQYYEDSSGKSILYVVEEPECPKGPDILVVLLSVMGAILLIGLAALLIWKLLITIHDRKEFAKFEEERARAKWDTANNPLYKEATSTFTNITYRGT
T1 sequence (P06756 31-889 limits assumed): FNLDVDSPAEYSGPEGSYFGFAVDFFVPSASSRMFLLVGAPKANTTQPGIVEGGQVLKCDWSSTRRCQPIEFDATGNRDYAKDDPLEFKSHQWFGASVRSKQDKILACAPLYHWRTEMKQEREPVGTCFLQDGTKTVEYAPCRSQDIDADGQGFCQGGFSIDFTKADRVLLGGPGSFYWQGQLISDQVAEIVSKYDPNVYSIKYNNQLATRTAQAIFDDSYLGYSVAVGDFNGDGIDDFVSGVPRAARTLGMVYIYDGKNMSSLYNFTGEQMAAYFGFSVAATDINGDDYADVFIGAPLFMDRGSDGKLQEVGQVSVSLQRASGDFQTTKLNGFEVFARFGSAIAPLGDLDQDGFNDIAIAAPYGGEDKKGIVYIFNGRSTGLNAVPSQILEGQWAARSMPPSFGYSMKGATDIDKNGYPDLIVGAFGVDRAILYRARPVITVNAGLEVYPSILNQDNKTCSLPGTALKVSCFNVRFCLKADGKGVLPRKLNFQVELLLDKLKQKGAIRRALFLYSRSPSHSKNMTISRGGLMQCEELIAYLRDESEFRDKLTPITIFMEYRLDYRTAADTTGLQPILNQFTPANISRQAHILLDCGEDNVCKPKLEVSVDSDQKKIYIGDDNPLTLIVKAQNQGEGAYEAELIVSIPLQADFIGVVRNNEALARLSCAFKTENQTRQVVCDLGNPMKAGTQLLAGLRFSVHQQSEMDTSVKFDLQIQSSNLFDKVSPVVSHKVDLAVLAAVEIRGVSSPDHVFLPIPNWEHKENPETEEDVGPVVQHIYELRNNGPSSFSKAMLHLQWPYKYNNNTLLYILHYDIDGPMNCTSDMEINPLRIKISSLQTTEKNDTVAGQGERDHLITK
T1 sequence (P06756 891-1048 limits assumed): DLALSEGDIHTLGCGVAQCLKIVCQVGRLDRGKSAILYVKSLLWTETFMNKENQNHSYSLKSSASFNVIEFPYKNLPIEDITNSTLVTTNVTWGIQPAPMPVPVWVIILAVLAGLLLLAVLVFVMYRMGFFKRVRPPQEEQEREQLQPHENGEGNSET

For `O=C(O)C[C@H](NC(=O)Cn1c(C2CC2)c(Cl)nc(NCc2ccc3c(n2)NCCC3)c1=O)c1cccnc1`, the logP in [1] was -0.26. Moreover, in data set [2], inhibition was half-maximal at 0.3 nM (IC50).

Molecule `CCCc1ccc(NCc2ccc3c(n2)NCCC3)c(=O)n1CC(=O)N[C@@H](CC(=O)O)c1cccnc1` returned a logP in data set [1] of -0.48. The molecule also had an IC50 in data set [3] of 1.4 nM.

`O=C(O)C[C@H](NC(=O)Cn1c(C2CC2)ccc(NCc2ccc3c(n2)NCCC3)c1=O)c1cccnc1` gave a logP in [1] of -0.8. The molecule also registered an IC50 in data set [3] of 0.2 nM.

`CCc1c(Cl)nc(NCc2ccc3c(n2)NCCC3)c(=O)n1CC(=O)N[C@@H](CC(=O)O)c1cccc(F)c1` came in with a logP in data set [1] of 1.3. Also, half-maximal inhibition in [2] (IC50) was put at 9.3 nM.

As for `O=C(O)C[C@H](NC(=O)Cn1c(-c2ccccc2)c(Cl)nc(NCc2ccc3c(n2)NCCC3)c1=O)c1cccc(F)c1`, the logP in [1] amounted to 1.6. Further, in data set [2], 112 nM corresponded to half-maximal inhibition (IC50).

In turn, `O=C(O)C[C@H](NC(=O)Cn1c(C2CC2)ccc(NCc2ccc3c(n2)NCCC3)c1=O)c1ccc2c(c1)OCC2` showed a logP in [1] of 0.28. Inhibition in data set [3] was half-maximal at 0.2 nM (IC50).

`O=C(O)C[C@H](NC(=O)Cn1cccc(NCc2ccc3c(n2)NCCC3)c1=O)c1cccnc1` showed a logP in [1] of 1.55. The same molecule registered an IC50 in data set [3] of 1.4 nM.

For `Cc1cnc(NCc2ccc3c(n2)NCCC3)c(=O)n1CC(=O)N[C@@H](CC(=O)O)c1cccc(F)c1`, in data set [1], the logP is -0.31. Besides, the IC50 in data set [2] came to 1.1 nM.

Turning to `O=C(O)C[C@H](NC(=O)CN1CC[C@H](CCc2ccc3c(n2)NCCC3)C1=O)c1cccnc1`, in data set [4], the fraction unbound was 0.446. The half-life in [5] and in data set [6] was 1 h each time. The same molecule returned an IC50 in data set [2] of 0.4 nM.

As for `O=C(O)C[C@H](NC(=O)Cn1c(C2CC2)cnc(NCc2ccc3c(n2)NCCC3)c1=O)c1cccnc1`, the logP in [1] is 0.25. The molecule further returned an IC50 in [2] of 0.2 nM.

In the case of `Cc1c(Cl)nc(NCc2ccc3c(n2)NCCC3)c(=O)n1CC(=O)N[C@@H](CC(=O)O)c1cccc(F)c1`, the fraction unbound in data set [4] is 0.015. The half-life in data set [5] and in [6] was 2.1 h throughout. Also, the Cl in [7] and in [8] was 28 mL/min/kg throughout. The logP in data set [1] was 0.61. This molecule gave an IC50 in [2] of 2.1 nM.

`O=C(O)C[C@H](NC(=O)Cn1c(C2CC2)cnc(NCc2ccc3c(n2)NCCC3)c1=O)c1ccc2c(c1)OCO2`: the fraction unbound in data set [4] is 0.025. The bioavailability in data set [9] and in data set [10] was 0.3% throughout. Further, the half-life in data set [5] and in [6] was 1.1 h throughout. The Cl in [7] and in data set [8] was 26 mL/min/kg each time. Moreover, the logP in [1] was -0.1. This molecule also displayed an IC50 in data set [2] of 0.2 nM.

In the case of `Cc1cnc(NCc2ccc3c(n2)NCCC3)c(=O)n1CC(=O)N[C@@H](CC(=O)O)c1cccnc1`, in data set [3], half-maximal inhibition (IC50) was put at 0.8 nM.

Turning to `O=C(O)C[C@H](NC(=O)Cn1c(C2CC2)ccc(NCc2ccc3c(n2)NCCC3)c1=O)c1cccc(F)c1`, the fraction unbound in data set [4] is 0.006. Further, the bioavailability in [9] and in data set [10] was 3% in each case. Moreover, the half-life in [5] and in data set [6] was 0.8 h each time. The Cl in [7] and in data set [8] was 20 mL/min/kg in each case. Also, the logP in data set [1] came to 0.54. For the same molecule, the IC50 in data set [3] was found to be 0.8 nM.

In turn, `O=C(O)C[C@H](NC(=O)Cc1ccc(CCc2ccc3c(n2)NCCC3)s1)c1cccnc1` displayed an IC50 in [3] of 246 nM.

Molecule `O=C(O)C[C@H](NC(=O)Cn1c(C2CC2)c(Cl)nc(NCc2ccc3c(n2)NCCC3)c1=O)c1cccc(F)c1` yielded a logP in data set [1] of 1.1. Besides, the IC50 in data set [2] is 2.7 nM.

`O=C(O)C[C@H](NC(=O)Cc1cccc(CCc2ccc3c(n2)NCCC3)c1)c1cccnc1` showed an IC50 in data set [2] of 21 nM.

Turning to `O=C(O)C[C@H](NC(=O)Cn1c(C2CC2)c(Cl)nc(NCc2ccc3c(n2)NCCC3)c1=O)c1cnc2ccccc2c1`, the logP in data set [1] came to 1.12. The molecule further had an IC50 in data set [2] of 0.7 nM.

Regarding `O=C(O)C[C@H](NC(=O)Cn1c(C2CC2)cnc(NCc2ccc3c(n2)NCCC3)c1=O)c1cccc(F)c1`, the fraction unbound in data set [4] is 0.025. Further, the bioavailability in data set [9] and in [10] was 0.3% in each case. The half-life in data set [5] and in data set [6] was 1.1 h each time. In addition, the Cl in data set [7] and in data set [8] was 26 mL/min/kg in each case. Further, the logP in data set [1] was 0.15. Moreover, the midpoint of inhibition in data set [2], the IC50, lay at 1.4 nM.

Regarding `CCc1cnc(NCc2ccc3c(n2)NCCC3)c(=O)n1CC(=O)N[C@@H](CC(=O)O)c1cccc(F)c1`, the fraction unbound in data set [4] was 0.028. Also, the bioavailability in data set [9] and in data set [10] was 4.3% each time. Moreover, the half-life in [5] and in data set [6] was 1.4 h in each case. For the same molecule, the Cl in [7] and in data set [8] was 22 mL/min/kg throughout. In data set [1], this molecule showed a logP of -0.47. For the same molecule, 1.9 nM corresponded to half-maximal inhibition in data set [2] (IC50).

With `Cc1ccc(NCc2ccc3c(n2)NCCC3)c(=O)n1CC(=O)N[C@@H](CC(=O)O)c1cccnc1`, the fraction unbound in data set [4] was 0.088. Moreover, the half-life in data set [5] and in data set [6] was 0.8 h in each case. The Cl in data set [7] and in data set [8] was 21 mL/min/kg each time. For the same molecule, the logP in data set [1] was -1.46. Moreover, in data set [3], it took 1 nM to reach half-maximal inhibition (IC50).

Take `C#C[C@H](CC(=O)O)NC(=O)Cn1c(C2CC2)ccc(NCc2ccc3c(n2)NCCC3)c1=O`: the logP in data set [1] was -0.97. In data set [3], 9 nM corresponded to half-maximal inhibition (IC50).

For the molecule `O=C(O)C[C@H](NC(=O)Cn1c(C2CC2)c(Cl)nc(NCc2ccc3c(n2)NCCC3)c1=O)c1ccc2c(c1)OCC2`, in [1], the logP amounted to 0.9. This molecule also returned an IC50 in data set [2] of 0.2 nM.

The term logP denotes a log measure of how a compound divides between an organic and an aqueous phase. A low value points to a more hydrophilic compound. By IC50 is commonly meant the point on the concentration scale where inhibition reaches its midpoint. The low end stands for greater potency, the high end for weaker potency. By half-life is commonly meant how long it takes for the measured level to halve. A lower half-life goes with fast loss. By bioavailability is commonly meant dose-corrected exposure relative to a reference, in per cent. Read a low bioavailability as poor availability.
